# Measurements reported in patent US8815909B2, “Diaminocyclohexane compounds and uses thereof” (Bristol-Myers Squibb Company, priority 2011, dated 2014).
# Structures can show the parent of a compound that is named as a salt.
# Molecular target: T1, human Y4 receptor (Homo sapiens, UniProt P50391)
# T1 construct: expressed in transfected cells
# Test: NPY4 cAMP HTRF Agonist Assay (inhibitory cAMP assay, Gi activation by Y4 agonism)
# Assay type: cell-based
# Conditions: TABLE 2, R2 is Phenyl-CN; read-out: hY4 CAMP EC50
# Protocol: NPY4 cAMP HTRF Agonist Assay
# The functionality of the compound at Y4 receptor was analyzed using a inhibitory cAMP assay (CISBIO, HTRF cAMP kit #62AM4PEC) to measure the Gi activation by Y4 agonism.
# The human Y4 stable CHO clonal cells were maintained in culture medium (F-12 containing 10% Fetal Bovine Serum, […] GENETICIN®, […] Zeocin). Before the experiment, 5 μL of 1 uM Forskolin (Sigma, # F6886) and 100 uM IBMX (Sigma, # I5879) in PBS buffer were added into 384-well plates (PE, Proxi-plate) that were pre-dotted with 100 nL compounds. The cells were removed from the flasks by Cellstripper, counted and adjusted to 1.0×10^6 cells/mL in PBS buffer, and added 5 μL/well (5000 cells/well) into the above 384-well plates. The cells were then covered and incubated for 30 minutes at room temperature. After incubation, 5 μL/well of D2-conjugate in HTRF lysis buffer was first added, followed by adding 5 μL/well of anti-cAMP Cryptate in HTRF lysis buffer. The plates were incubated for another 1 hour at room temperature and read on the EnVision Multilabel Plate Reader.
# Compounds described herein were tested in the above assay.
# T1 sequence (P50391 whole entry): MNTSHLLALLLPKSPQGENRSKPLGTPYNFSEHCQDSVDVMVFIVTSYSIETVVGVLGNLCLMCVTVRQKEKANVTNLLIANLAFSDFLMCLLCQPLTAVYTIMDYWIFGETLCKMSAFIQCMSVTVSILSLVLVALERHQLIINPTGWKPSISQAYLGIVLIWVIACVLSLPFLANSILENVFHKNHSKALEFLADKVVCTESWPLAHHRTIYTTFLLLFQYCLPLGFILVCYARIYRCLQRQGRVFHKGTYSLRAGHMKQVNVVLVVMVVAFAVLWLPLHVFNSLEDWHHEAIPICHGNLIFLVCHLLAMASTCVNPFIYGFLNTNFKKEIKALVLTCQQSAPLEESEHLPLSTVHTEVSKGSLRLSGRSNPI
row,EC50 [nM],SMILES
1,176,N#Cc1ccc(N2CCC[C@H](N[C@@H]3CCCC[C@H]3Nc3cc(-n4cccn4)ccn3)C2)cc1 [Example 284]
2,43,N#Cc1ccc(N2CCC[C@H](N[C@@H]3CCCC[C@H]3Nc3cc(-n4cccc4)ccn3)C2)cc1 [Example 280]
3,461,Cc1ccc(-c2ccnc(N[C@@H]3CCCC[C@H]3N[C@H]3CCCN(c4ccc(C#N)cc4)C3)c2)cc1 [Example 271]
4,120,N#Cc1ccc(N2CCC[C@H](N[C@@H]3CCCC[C@H]3Nc3cc(-c4ccccc4O)ccn3)C2)cc1 [Example 276]
5,299,N#Cc1ccc(N2CCC[C@H](N[C@@H]3CCCC[C@H]3Nc3cc(Cc4ccccc4)ccn3)C2)cc1 [Example 245]
6,1,N#Cc1ccc(N2C[C@@H]3C[C@H](N[C@@H]4CCCC[C@H]4Nc4cc(-c5cccc(O)c5)ccn4)[C@H]2C3)cc1 [Example 228]

# Continued, compound first:
row,SMILES,EC50 [nM]
1,N#Cc1ccc(N2C[C@@H]3C[C@H](N[C@@H]4CCCC[C@H]4Nc4ncc(-c5ccc(O)cc5)o4)[C@H]2C3)cc1 [Example 225],54
2,N#Cc1ccc(N2CCC[C@H](N[C@@H]3CCCC[C@H]3Nc3cc(-n4cncn4)ccn3)C2)cc1 [Example 208],231

# Same assay, conditions: TABLE 3, R2 is Phenyl-NO2; read-out: hY4 CAMP EC50
row,EC50 [nM],SMILES
1,26,N#Cc1ccc(-c2cnc(N[C@@H]3CCCC[C@H]3N[C@H]3CCCN(c4ccc([N+](=O)[O-])cc4)C3)o2)cc1 [Example 285]
2,41,NC(=O)c1cccc(-c2ccnc(N[C@@H]3CCCC[C@H]3N[C@H]3C[C@@H]4C[C@H]3N(c3ccc([N+](=O)[O-])cc3)C4)c2)c1 [Example 294]

# Same assay, conditions: TABLE 4, R2 is Pyridinyl-CN; read-out: hY4 CAMP EC50
row,EC50 [nM],SMILES
1,135,N#Cc1ccc(N2CCC[C@H](N[C@@H]3CCCC[C@H]3Nc3nccc(-c4ccccc4)n3)C2)cn1 [Example 308]

# Same assay, conditions: TABLE 5, R2 is Pyridinyl-CF3; read-out: hY4 CAMP EC50
row,EC50 [nM],SMILES
1,226,FC(F)(F)Oc1ccc(-c2cnc(N[C@@H]3CCCC[C@H]3N[C@H]3C[C@@H]4C[C@H]3N(c3ccc(C(F)(F)F)cn3)C4)o2)cc1 [Example 338]
2,166,COC(=O)c1cccc(-c2cnc(N[C@@H]3CCCC[C@H]3N[C@H]3CCCN(c4ccc(C(F)(F)F)cn4)C3)o2)c1 [Example 330]
3,1,NC(=O)c1cccc(-c2cnc(N[C@@H]3CCCC[C@H]3N[C@H]3CCCN(c4ccc(C(F)(F)F)cn4)C3)o2)c1 [Example 318]

# Same assay, conditions: TABLE 7, R2 is Pyridinyl-oxadiazole-CH3; read-out: hY4 CAMP EC50
row,EC50 [nM],SMILES
1,5,Cc1nc(-c2ccc(N3CCC[C@H](N[C@@H]4CCCC[C@H]4Nc4nccc(-c5ccccc5)n4)C3)cn2)no1 [Example 395]

# Same assay, conditions: human Y4 receptor, cAMP; read-out: hY4 CAMP EC50
row,EC50 [nM],SMILES
1,8,NC(=O)c1cccc(-c2ccnc(N[C@@H]3CCCC[C@H]3N[C@H]3CCCN(c4ccc(OC(F)(F)F)cc4)C3)c2)c1 [Example 462]
2,79,NC(=O)c1cccc(-c2ccnc(N[C@@H]3CCCC[C@H]3N[C@H]3CCCN(c4cnc(C(F)(F)F)cn4)C3)c2)c1 [Example 473]
3,482,N#Cc1ccc(N2C[C@@H]3C[C@H](N[C@@H]4CCCC[C@H]4Nc4ncc(-c5ccc(OC(F)(F)F)cc5)o4)[C@H]2C3)nn1 [Example 443]
4,600,N#Cc1ccnc(N[C@@H]2CCCC[C@H]2N[C@H]2CCCN(c3cnc(C(F)(F)F)nc3)C2)c1 [Example 426]
5,1,COC(=O)Nc1cccc(-c2cnc(N[C@@H]3CCCC[C@H]3N[C@H]3CCCN(c4cnc(-c5noc(C)n5)nc4)C3)o2)c1 [Example 466]
6,4,Cn1nnc(-c2ccc(N3C[C@@H]4C[C@H](N[C@@H]5CCCC[C@H]5Nc5cc(-c6cccc(C(N)=O)c6)ccn5)[C@H]3C4)cc2)n1 [Example 460]
7,42,CNC(=O)c1cccc(-c2ccnc(N[C@@H]3CCCC[C@H]3N[C@H]3CCCN(c4cnc(-c5noc(C)n5)nc4)C3)c2)c1 [Example 464]
8,3,Cc1nc2ccc(N3CCC[C@H](N[C@@H]4CCCC[C@H]4Nc4ncc(-c5cccc(C(N)=O)c5)o4)C3)cn2n1 [Example 489]
9,17,NC(=O)c1cccc(-c2cnc(N[C@@H]3CCCC[C@H]3N[C@H]3CCCN(c4ccc5ncnn5c4)C3)o2)c1 [Example 480]
10,6,Cn1nnc(-c2ccc(N3CCC[C@H](N[C@@H]4CCCC[C@H]4Nc4cc(-c5cccc(NS(C)(=O)=O)c5)ccn4)C3)cc2)n1 [Example 507]

# Same assay, conditions: human Y4 stable CHO clonal cells, forskolin + IBMX; read-out: NPY4 cAMP HTRF Agonist Assay EC50
row,EC50 [nM],SMILES
1,6,"NC(=O)c1cccc(-c2cnc(N[C@@H]3CCCC[C@H]3N[C@H]3CCCN(c4cnc(C(F)(F)F)nc4)C3)o2)c1 [Example 97, 3-(2-(((1R,2R)-2-(((S)-1-(2-(trifluoromethyl)pyrimidin-5-yl)piperidin-3-yl)amino)cyclohexyl)amino)oxazol-5-yl)benzamide]"
2,145,"Cc1nnc(-c2ccc(N3CCC[C@H](N[C@@H]4CCCC[C@H]4Nc4ncc(-c5ccc(OC(F)(F)F)cc5)o4)C3)cc2)o1 [Example 85, (1R,2R)—N1-((S)-1-(4-(5-Methyl-1,3,4-oxadiazol-2-yl)phenyl)piperidin-3-yl)-N2-(5-(4-(trifluoromethoxy)phenyl)oxazol-2-yl)cyclohexane-1,2-diamine]"
3,174,"FC(F)(F)Oc1ccc(-c2cnc(N[C@@H]3CCCC[C@H]3N[C@H]3CCCN(c4ccc(-n5cccn5)cc4)C3)o2)cc1 [Example 63, (1R,2R)—N1-((S)-1-(4-(1H-Pyrazol-1-yl)phenyl)piperidin-3-yl)-N2-(5-(4-(trifluoromethoxy)phenyl)oxazol-2-yl)cyclohexane-1,2-diamine trifluoroacetate]"
4,6,"N#Cc1ccc(N2CCC[C@H](N[C@@H]3CCCC[C@H]3Nc3ncc(-c4ccccc4)o3)C2)cc1F [Example 48, 2-Fluoro-4-((S)-3-((1R,2R)-2-(5-phenyloxazol-2-ylamino)cyclohexylamino)piperidin-1-yl)benzonitrile bis-trifluoroacetate]"
5,34,"O=[N+]([O-])c1cnc(N2CCC[C@H](N[C@@H]3CCCC[C@H]3Nc3ncc(-c4ccccc4)o3)C2)nc1 [Example 77, (1R,2R)—N1-((S)-1-(5-Nitropyrimidin-2-yl)piperidin-3-yl)-N2-(5-phenyloxazol-2-yl)cyclohexane-1,2-diamine bis-trifluoroacetate]"
6,75,"O=[N+]([O-])c1cnc(N2CCC[C@H](N[C@@H]3CCCC[C@H]3Nc3ncc(-c4ccc(OC(F)(F)F)cc4)o3)C2)nc1 [Example 78, (1R,2R)—N1-((S)-1-(5-Nitropyrimidin-2-yl)piperidin-3-yl)-N2-(5-(4-(trifluoromethoxy)phenyl)oxazol-2-yl)cyclohexane-1,2-diamine bis-trifluoroacetate]"
7,1260,"Cc1cnn(-c2ccc(N3CCC[C@H](N[C@@H]4CCCC[C@H]4Nc4ncc(-c5ccc(OC(F)(F)F)cc5)o4)C3)cc2)c1 [Example 66, (1R,2R)—N1-((S)-1-(4-(4-Methyl-1H-pyrazol-1-yl)phenyl)piperidin-3-yl)-N2-(5-(4-(trifluoromethoxy)phenyl)oxazol-2-yl)cyclohexane-1,2-diamine bis-trifluoroacetate]"
8,548,"N#Cc1ccc(N2CCC[C@H](N[C@@H]3CCCC[C@H]3Nc3ncc(-c4ccccc4)o3)C2)c(F)c1 [Example 51, 3-Fluoro-4-((S)-3-((1R,2R)-2-(5-phenyloxazol-2-ylamino)cyclohexylamino)piperidin-1-yl)benzonitrile]"
9,82,"N#Cc1ccc(N2CCC[C@H](N[C@@H]3CCCC[C@H]3Nc3cc(-c4ccccc4F)ccn3)C2)cc1 [Example 37, 4-((S)-3-((1R,2R)-2-(4-(2-Fluorophenyl)pyridin-2-ylamino)cyclohexylamino)piperidin-1-yl)benzonitrile tris-trifluoroacetate]"

# Same assay, conditions: second TABLE 1, R2 is Phenyl-CF3; read-out: hY4 CAMP EC50
row,EC50 [nM],SMILES
1,54,FC(F)(F)c1ccc(N2CCC[C@H](N[C@@H]3CCCC[C@H]3NC3=NOC(c4ccccc4)C3)C2)cc1 (some centres unmarked) [Example 180]
2,142,FC(F)(F)c1ccc(N2CCC[C@H](N[C@@H]3CCCC[C@H]3Nc3cc(-c4cn[nH]c4)ccn3)C2)cc1 [Example 171]
3,48,FC(F)(F)c1ccc(N2CCC[C@H](N[C@@H]3CCCC[C@H]3Nc3cc4ccccc4cn3)C2)cc1 [Example 195]
4,67,FC(F)(F)c1ccc(N2CCC[C@H](N[C@@H]3CCCC[C@H]3Nc3cc(-c4cc[nH]c4)ccn3)C2)cc1 [Example 198]
5,126,FC(F)(F)Oc1ccc(-c2cnc(N[C@@H]3CCCC[C@H]3N[C@H]3C[C@@H]4C[C@H]3N(c3ccc(C(F)(F)F)cc3)C4)o2)cc1 [Example 181]
6,107,CC(C)NCc1cccc(-c2ccnc(N[C@@H]3CCCC[C@H]3N[C@H]3CCCN(c4ccc(C(F)(F)F)cc4)C3)c2)c1 [Example 143]
7,31,OCCC#Cc1ccnc(N[C@@H]2CCCC[C@H]2N[C@H]2CCCN(c3ccc(C(F)(F)F)cc3)C2)c1 [Example 161]
8,1,CC(=O)NCc1cccc(-c2ccnc(N[C@@H]3CCCC[C@H]3N[C@H]3CCCN(c4ccc(C(F)(F)F)cc4)C3)c2)c1 [Example 140]
9,74,OCC#Cc1ccnc(N[C@@H]2CCCC[C@H]2N[C@H]2CCCN(c3ccc(C(F)(F)F)cc3)C2)c1 [Example 163]
10,38,OCc1cc(-c2ccnc(N[C@@H]3CCCC[C@H]3N[C@H]3CCCN(c4ccc(C(F)(F)F)cc4)C3)c2)ccc1F [Example 165]
